Data on two compounds can be found in publication PMC7534323 (Journal of Enzyme Inhibition and Medicinal Chemistry, 2020).

Values joined by “and” are separate entries in the source; they are usually repeats but may differ in a detail not shown here. Equal entries are not always repeated. Some results are limits rather than exact numbers.

Assay [1] deals with T1, human erythrocyte acetylcholinesterase (AChE) (Homo sapiens, UniProt P22303).
T1 construct: 400-fold diluted solution of haemolysed erythrocytes or 200-fold diluted plasma; from tissue; host or cells: haemolysed erythrocytes from blood of healthy human donors
T1 sequence (P22303 other isoform, or with tags, fused parts or gaps): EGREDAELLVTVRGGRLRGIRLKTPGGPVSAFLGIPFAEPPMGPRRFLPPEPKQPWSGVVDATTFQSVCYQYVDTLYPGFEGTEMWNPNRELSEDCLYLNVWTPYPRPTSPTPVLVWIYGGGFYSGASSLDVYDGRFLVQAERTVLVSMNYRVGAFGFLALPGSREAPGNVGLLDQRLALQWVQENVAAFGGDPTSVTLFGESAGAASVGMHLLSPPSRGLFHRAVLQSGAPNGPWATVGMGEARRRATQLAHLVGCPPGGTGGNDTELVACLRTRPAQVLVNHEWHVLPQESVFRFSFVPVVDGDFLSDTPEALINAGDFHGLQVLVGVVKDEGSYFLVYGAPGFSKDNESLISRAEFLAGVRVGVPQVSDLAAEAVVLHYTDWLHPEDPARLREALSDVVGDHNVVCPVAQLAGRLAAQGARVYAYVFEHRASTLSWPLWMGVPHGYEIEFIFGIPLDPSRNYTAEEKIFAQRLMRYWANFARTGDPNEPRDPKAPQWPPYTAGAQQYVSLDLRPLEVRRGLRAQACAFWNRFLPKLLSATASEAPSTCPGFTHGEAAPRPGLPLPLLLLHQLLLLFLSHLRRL
In words: biochemical. The class given is biochemical. Here is the method:
(§1) Blood samples were obtained from healthy donors of Blood Donation Centre in Lodz and The Voievodal Specialised Hospital in Lodz. The preparation of erythrocytes for AChE activity measurements and plasma for the assessment of BuChE activity has been described previously.
(§2) The biological sample, consisting of a 400-fold diluted solution of haemolysed erythrocytes or 200-fold diluted plasma was incubated for 15 min (37 °C) with DTNB; the tested compound was then added in a volume of 10 µL. The enzymatic reaction was initiated by addition of a reaction substrate (ATC or BTC).

The target of assay [2] is human plasma butyrylcholinesterase (BuChE) (Homo sapiens, UniProt P06276). In words: biochemical. The method, then: as §1, §2
Chain of human plasma butyrylcholinesterase (BuChE) (P06276 29-602): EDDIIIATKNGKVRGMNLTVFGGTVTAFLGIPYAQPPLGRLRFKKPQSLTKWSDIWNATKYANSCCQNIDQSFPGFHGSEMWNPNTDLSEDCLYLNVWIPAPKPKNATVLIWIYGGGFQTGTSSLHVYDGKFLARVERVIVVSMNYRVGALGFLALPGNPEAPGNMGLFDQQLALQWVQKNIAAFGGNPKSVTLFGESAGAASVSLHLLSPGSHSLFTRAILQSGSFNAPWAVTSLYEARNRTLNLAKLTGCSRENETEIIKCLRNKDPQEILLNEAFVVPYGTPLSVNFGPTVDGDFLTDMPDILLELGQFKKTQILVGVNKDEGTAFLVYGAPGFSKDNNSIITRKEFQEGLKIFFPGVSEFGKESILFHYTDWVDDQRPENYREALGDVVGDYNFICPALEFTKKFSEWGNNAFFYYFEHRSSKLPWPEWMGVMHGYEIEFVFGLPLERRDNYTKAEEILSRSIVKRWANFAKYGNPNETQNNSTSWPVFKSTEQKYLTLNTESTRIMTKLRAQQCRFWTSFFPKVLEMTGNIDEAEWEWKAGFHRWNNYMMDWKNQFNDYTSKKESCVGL
Assay [3] concerns the target BuChE in human plasma (Homo sapiens, UniProt P06276). Here is the method: Due to the high level of variation in the individual concentration and activity of BuChE in human plasma, 32 biological samples were studied.
The kinetic parameters of enzymatic reactions were estimated using linear regression (Hanes-Woolf plots). The following parameters were calculated: the maximal velocity (Vmax) and the Michaelis constant (Km).
The kinetic parameters of BuChE reactions were obtained in a series of experiments using decreasing concentrations of BTC. The curves were analysed using the Hanes-Woolf equation, in which the ratio of the initial substrate concentration [S] to the reaction velocity v is plotted against [S].

Chain of BuChE in human plasma (P06276 29-602): as above

On to `Cc1ncc(C)n2nc(-c3ccn4cc(-c5ccccc5)nc4n3)nc12` [CPL500036-02], for which the “maximal inhibition of AChE” value in assay [1] (concentration range 0.01−100 µmol/L, vs control (100% of activity), listed as compound 2) was 34.87 ± 1.65% and ~34.87%.

Turning to `OCCOCCN1CCN(C2=Nc3ccccc3Sc3ccccc32)CC1` [Quetiapine], the IC50 (usually the point on the concentration scale where inhibition reaches its midpoint) was 6.08 ± 1.64 µM in assay [2] and over 100 µM in assay [1]. The inhibition at 100 µM in assay [1] (read-out: maximal inhibitory effect against AChE) came out at 8.82 ± 1.68%. Moreover, in assay [3] (from Km and Vmax with and without inhibitor at IC50 concentration), the “type of BuChE inhibition” value is “mixed inhibition”. In assay [3] (inhibitor at IC50 concentration, substrate BTC, mean ± SD), the “Vmax(i) (Vmax of the reactions with inhibitor)” value amounted to 0.137 ± 0.036 A/min.
